Experimental data reported in patent US5057523A, “Dipeptide quinolone derivatives” (Abbott Laboratories, priority 1989, dated 1991).
Converted amounts (≈) assume the structure as drawn. Where a name gives a salt, the structure may show the parent alone.

Assays:
P. Aeruginosa A5007 = assay: Acute mouse protection test; format: in vivo; settings: mice infected intraperitoneally with P. Aeruginosa A5007, dosed at 1 and 5 hours post-infection
Stap. Aureus NCTC 10649 = assay: Acute mouse protection test; format: in vivo; settings: mice infected intraperitoneally with Stap. Aureus NCTC 10649, dosed at 1 and 5 hours post-infection
E. Coli Juhl [1] = assay: Acute mouse protection test; format: in vivo; settings: mice infected intraperitoneally with E. Coli JUHL, dosed at 1 and 5 hours post-infection
Ps. Aeruginosa A5007 = assay: Second in vitro test, MIC in Brain Heart Infusion Broth (BHIB)
E. Coli Juhl [2] = assay: as above
Stap. Aureus CMX 553 = assay: as above
Strep pyogenes EES 61 = assay: as above
PSEUDOMONAS CEPACIA 2961 = assay: In vitro antibacterial activity, agar dilution MIC (BHIA); format: cell-based; settings: BHI agar
[3] = test system: STREPTOCOCCUS BOVIS A5169; assay: as above; format: cell-based; settings: STREPTOCOCCUS BOVIS A5169; BHI agar
[4] = test system: STREPTOCOCCUS PYOGENES EES61; assay: as above; format: cell-based; settings: STREPTOCOCCUS PYOGENES EES61; BHI agar
ESCHERICHIA COLI H560 = assay: as above; format: cell-based; settings: BHI agar
Source text: (§1) The MIC results are in μg/ml.

ESCHERICHIA COLI DC-2 = assay: as above; format: cell-based; settings: BHI agar
Source text: as §1

ESCHERICHIA COLI SS = assay: as above; format: cell-based; settings: BHI agar
Source text: as §1

[5] = test system: STREPTOCOCCUS AGALACTIAE CMX 508; assay: as above; format: cell-based; settings: STREPTOCOCCUS AGALACTIAE CMX 508; BHI agar
[6] = test system: MICROCOCCUS LUTEUS ATCC 9341; assay: as above; format: cell-based; settings: BHI agar
[7] = test system: PSEUDOMONAS AERUGINOSA BMH10; assay: as above; format: cell-based; settings: BHI agar
[8] = test system: PROVIDENCIA STUARTII CMX 640; assay: as above; format: cell-based; settings: BHI agar
ESCHERICHIA COLI JUHL = assay: as above; format: cell-based; settings: BHI agar
[9] = test system: ENTEROCOCCUS FAECIUM ATCC 8043; assay: as above; format: cell-based; settings: ENTEROCOCCUS FAECIUM ATCC 8043; BHI agar
ESCHERICHIA COLI KNK 437 = assay: as above; format: cell-based; settings: BHI agar
[10] = test system: STREPTOCOCCUS PYOGENES 2548 INDUC; assay: as above; format: cell-based; settings: BHI agar
[11] = test system: PSEUDOMONAS AERUGINOSA A5007; assay: as above; format: cell-based; settings: BHI agar
[12] = test system: PSEUDOMONAS AERUGINOSA K799/WT; assay: as above; format: cell-based; settings: BHI agar

| SMILES | MIC (Ps. Aeruginosa A5007) [µg/mL] | MIC (E. Coli Juhl [2]) [µg/mL] | MIC (Stap. Aureus CMX 553) [µg/mL] | MIC (Strep pyogenes EES 61) [µg/mL] | Oral (ED50) (P. Aeruginosa A5007) [mg/kg/day] | Oral (ED50) (Stap. Aureus NCTC 10649) [mg/kg/day] | Oral (ED50) (E. Coli Juhl [1]) [mg/kg/day] | also measured |
| --- | --- | --- | --- | --- | --- | --- | --- | --- |
| CCCC(N)C(=O)NC1CCN(c2c(F)cc3c(=O)c(C(=O)O)cn(C4CC4)c3c2F)C1 (stereo not shown) [Example 26r] |  |  |  |  | 7.3 | 3.0 | 2.3 |  |
| CC(N)C(=O)NC1CCN(c2c(F)cc3c(=O)c(C(=O)O)cn(C4CC4)c3c2F)C1 (stereo not shown) [Example 26s] |  |  |  |  | 5.0 | 4.8 | 1.8 |  |
| NC(Cc1ccc(O)cc1)C(=O)NC1CCN(c2nc3c(cc2F)c(=O)c(C(=O)O)cn3-c2ccc(F)cc2F)C1 (stereo not shown) [Example 13] | 50 (≈ 88.1 µM) |  |  |  |  | 1.7 |  |  |
| NC(=O)C[C@H](N)C(=O)NC1CCN(c2nc3c(cc2F)c(=O)c(C(=O)O)cn3-c2ccc(F)cc2F)C1 (stereo partly drawn) [Example 41, 7-(3-L-Asparagine-amino-1-pyrrolidinyl)-1-(2,4-6-fluoro-1,4-dihydro-4-oxo-1,8-difluorophenyl)-3-carboxylic acid hydrochloride] |  |  |  |  |  | 2.9 |  |  |
| Cl.Cl.NCCCC[C@H](N)C(=O)NC1CCN(c2nc3c(cc2F)c(=O)c(C(=O)O)cn3-c2ccc(F)cc2F)C1 (stereo partly shown) [Example 46, 7-(3-Lys-amino-1-pyrrolidinyl)-1-(2,4-difluorophenyl)-6-fluoro-1,4-dihydro-4-oxo-1,8-naphthyridine-3-carboxylic acid dihydrochloride] | > 100 |  | 100 | 100 |  | 3.4 |  |  |
| CC(N)C(=O)NC(Cc1ccccc1)C(=O)NC1CCN(c2nc3c(cc2F)c(=O)c(C(=O)O)cn3-c2ccc(F)cc2F)C1 (stereo not shown) [Example 11] |  | 16 (≈ 25.7 µM) | 16.0 (≈ 25.7 µM) |  |  | 2.0 |  |  |
| NC(Cc1ccccc1)C(=O)NC1CCN(c2nc3c(cc2F)c(=O)c(C(=O)O)cn3-c2ccc(F)cc2F)C1 (stereo not shown) [Example 5] |  |  |  |  |  | 3.6 | 3.5 | MIC (PSEUDOMONAS CEPACIA 2961): > 100 µg/mL; MIC [3]: 6.2 µg/mL (≈ 11.2 µM); MIC [4]: 3.1 µg/mL (≈ 5.62 µM); MIC (ESCHERICHIA COLI H560): 3.1 µg/mL (≈ 5.62 µM); MIC (ESCHERICHIA COLI DC-2): 50 µg/mL (≈ 90.7 µM); MIC (ESCHERICHIA COLI SS): .1 µg/mL (≈ 0.181 µM); MIC [5]: 3.1 µg/mL (≈ 5.62 µM); MIC [6]: 25 µg/mL (≈ 45.3 µM); MIC [7]: 25 µg/mL (≈ 45.3 µM); MIC [8]: > 100 µg/mL; MIC (ESCHERICHIA COLI JUHL): 3.1 µg/mL (≈ 5.62 µM); MIC [9]: 3.1 µg/mL (≈ 5.62 µM); MIC (ESCHERICHIA COLI KNK 437): 100 µg/mL (≈ 181 µM); MIC [10]: .78 µg/mL (≈ 1.41 µM); MIC [11]: 50 µg/mL (≈ 90.7 µM); MIC [12]: 25 µg/mL (≈ 45.3 µM) |
| CC(N)C(=O)NC1CCN(c2nc3c(cc2F)c(=O)c(C(=O)O)cn3-c2ccc(F)cc2F)C1 (stereo not shown) [Example 17] | 16 (≈ 33.7 µM) | 0.5 (≈ 1.05 µM) | 2.0 (≈ 4.21 µM) |  |  | 1.7 | 2.0 |  |
| CCCC(N)C(=O)NC1CCN(c2cc3c(cc2F)c(=O)c(C(=O)O)cn3C2CC2)C1 (stereo not shown) [Example 26l] |  |  |  |  |  |  | 9.4 |  |
| NCC(=O)NC1CCN(c2nc3c(cc2F)c(=O)c(C(=O)O)cn3-c2ccc(F)cc2F)C1 (stereo not shown) [Example 7] |  | 0.78 (≈ 1.69 µM) |  | 0.78 (≈ 1.69 µM) |  | 2.4 | 5.0 |  |
| CSCCC(N)C(=O)NC1CCN(c2nc3c(cc2F)c(=O)c(C(=O)O)cn3-c2ccc(F)cc2F)C1 (stereo not shown) [Example 23] | 5.0 (≈ 9.34 µM) |  |  |  |  | 1.5 |  |  |
| CC(C)CC(N)C(=O)NC1CCN(c2nc3c(cc2F)c(=O)c(C(=O)O)cn3-c2ccc(F)cc2F)C1 (stereo not shown) [Example 21] | 25 (≈ 48.3 µM) |  |  | 6.2 (≈ 12 µM) |  | 2.4 |  |  |
| CCC[C@H](NC(=O)CNC(=O)CN)C(=O)NC1CCN(c2nc3c(cc2F)c(=O)c(C(=O)O)cn3-c2ccc(F)cc2F)C1 (stereo partly shown) [Example 30] | > 100 | 25 (≈ 40.5 µM) | 25 (≈ 40.5 µM) | 100 (≈ 162 µM) | 3.3 | 2.2 |  |  |
| Cl.N[C@@H](CC(=O)O)C(=O)NC1CCN(c2nc3c(cc2F)c(=O)c(C(=O)O)cn3-c2ccc(F)cc2F)C1 (stereo partly drawn) [Example 45, 7-(3-L-Asp-amino-1-pyrrolidinyl)-1-(2,4-difluorophenyl)-6-fluoro-1,4-dihyd ro-4-oxo-1,8-naphthyridine-3-carboxylic acid hydrochloride] |  |  |  |  | 13.0 | 1.5 |  |  |
| O=C(O)c1cn(-c2ccc(F)cc2F)c2nc(N3CCC(NC(=O)C4CCCN4)C3)c(F)cc2c1=O (stereo not shown) [Example 28] |  |  |  |  |  | 3.2 |  |  |

Further lines, with some results ahead:

| MIC (Ps. Aeruginosa A5007) [µg/mL] | MIC (E. Coli Juhl [2]) [µg/mL] | MIC (Stap. Aureus CMX 553) [µg/mL] | MIC (Strep pyogenes EES 61) [µg/mL] | SMILES | Oral (ED50) (P. Aeruginosa A5007) [mg/kg/day] | Oral (ED50) (Stap. Aureus NCTC 10649) [mg/kg/day] | Oral (ED50) (E. Coli Juhl [1]) [mg/kg/day] | also measured |
| --- | --- | --- | --- | --- | --- | --- | --- | --- |
| 6.2 (≈ 12.3 µM) | 0.78 (≈ 1.55 µM) | 0.39 (≈ 0.776 µM) |  | CCCC(N)C(=O)NC1CCN(c2cc3c(cc2F)c(=O)c(C(=O)O)cn3-c2ccc(F)cc2F)C1 (stereo not shown) [Example 26b] |  |  |  |  |
| 6.2 (≈ 12.8 µM) | 0.78 (≈ 1.61 µM) | 0.78 (≈ 1.61 µM) |  | CCCC(N)C(=O)NC1CCN(c2cc3c(cc2F)c(=O)c(C(=O)O)cn3-c2ccc(F)cc2)C1 (stereo not shown) [Example 26h] |  | 4.0 |  |  |
| 6.2 (≈ 12.8 µM) | 0.39 (≈ 0.803 µM) |  |  | CCCC(N)C(=O)NC1CCN(c2nc3c(cc2F)c(=O)c(C(=O)O)cn3-c2ccc(F)cc2)C1 (stereo not shown) [Example 26i] |  | 5.3 |  |  |
| 64 | 16 | 16 | 32 | Cl.NCC(=O)N[C@@H](Cc1ccccc1)C(=O)NC1CCN(c2cc3c(cc2F)c(=O)c(C(=O)O)cn3-c2ccc(F)cc2F)C1 (stereo partly drawn) [Example 26jj, 1-(2,4-Difluorophenyl)-6-Fluoro-7-(3-Gly-L-Phe -Amino 1-Pyrrolidinyl)-1,4-Dihydro-4-Oxo-Quinoline-3-Carboxylic Acid Hydrochloride] |  |  |  |  |
|  | 0.39 (≈ 0.904 µM) | 0.39 (≈ 0.904 µM) | 3.1 (≈ 7.18 µM) | CCCC(N)C(=O)NC1CCN(c2nc3c(cc2F)c(=O)c(C(=O)O)cn3C2CC2)C1 (stereo not shown) [Example 26p] | 9.1 | 4.5 |  |  |
| > 100 | 12.5 | 25 | 25 | CS(=O)(=O)CC[C@H](N)C(=O)NC1CCN(c2nc3c(cc2F)c(=O)c(C(=O)O)cn3-c2ccc(F)cc2F)C1.Cl (stereo partly drawn) [Example 31c, 7-[3 L-Methioninesulfone Amino-1-Pyrrolidinyl]-1-(2,4-Difluorophenyl)-6-Fluoro-1,4-Dihydro-4-Oxo 1,8-Naphthyridine 3-Carboxylic Acid Hydrochloride] | 7.8 | 1.8 | 1.8 |  |
|  | 0.2 (≈ 0.449 µM) | 0.39 (≈ 0.875 µM) | 3.1 (≈ 6.96 µM) | CC(C)CC(N)C(=O)NC1CCN(c2nc3c(cc2F)c(=O)c(C(=O)O)cn3C2CC2)C1 (stereo not shown) [Example 26o] | 6.2 | 4.0 | 1.2 |  |
| > 64 | 64 | 16 | 32 | Cl.Cl.N[C@@H](Cc1c[nH]cn1)C(=O)NC1CCN(c2nc3c(cc2F)c(=O)c(C(=O)O)cn3-c2ccc(F)cc2F)C1 (stereo partly drawn) [Example 44c, 7-[3-L-Histidine-Amino-1-Pyrrolidinyl)-1-(2,4-Difluorophenyl)-6-Fluoro-1,4-Dihydro-4-oxo-1,8-Naphthyridine-3-Carboxylic Acid Dihydrochloride] | 51.3 | 4.0 |  |  |
|  |  |  | 6.2 (≈ 14.8 µM) | CCC[C@H](N)C(=O)NC1CCN(c2nc3c(cc2F)c(=O)c(C(=O)O)cn3CC)C1 (stereo partly shown) [Example 26ff] |  |  |  |  |
